From patent US20260242395A1, “AMINOHETEROARYL KINASE INHIBITORS” (ALLORION THERAPEUTICS INC, priority 2022, published 2026) come the findings set out here.

Type in all cases: biochemical
One experiment concerns the target T1, CDK2/CyclinE1 (Homo sapiens, UniProt P24941).
T1 construct: purchased Carna 04-165
As to the kind of experiment: CDK2/CyclinE1 kinase inhibitory activity (Caliper mobility shift). The conditions noted are these: enzyme 3 nM, ATP 77 μM, 28° C. 30 min; read-out: CDK2/Cyclin E1 IC50. Here is the method:
CDK2/CyclinE1 kinase inhibitory activity (IC50): 5 μl of various dilutions of test compounds in 1×kinase buffer (50 mM HEPES pH 7.5, 10 mM MgCl2, 2 mM DTT and […] Brij-35) were mixed with 10 μL of CDK2/CyclinE1 (Carna, 04-165 #, final concentration 3 nM in 1×Kinase buffer) in 384 plates and incubated at room temperature for 10 min. To initiate each reaction, 10 μL of peptide solution containing fluorescently-labeled-peptide 18(5-FAM-QSPKKG-CONH2) (GL, 114202 #, final concentration 3000 nM) and ATP (final concentration 77 μM) in 1×Kinase buffer was added to each of the wells containing test compound and CDK2/CyclinE1 mixture. The reaction was then allowed to proceed at 28° C. for 30 min and terminated by the addition of 25 μL stop buffer (100 mM HEPES pH 7.5, 50 mM EDTA, 0.2% Coating Reagent #3 (Perkin Elmer, 760050 #) and 0.015% Brij-35).
(§1) Following the kinase reaction, Caliper EZ reader II (Downstream voltages: −500V, Upstream voltages: −2250V, Base pressure −0.5 PSI, Screen pressure −1.2 PSI) was used to separate the phosphorylated (product) and the unphosphorylated (substrate) fluorescently-labeled peptide 18 based on their different mobility. Both substrate and product were measured and the ratio of these values were used to generate % conversion by Caliper EZ reader II. These conversion values were then transformed into % inhibition of kinase activity using the formula: % Inhibition=[(MA−X)/(MA−MI)]×100% where MA=conversion value of DMSO only controls, MI=conversion value of no enzyme controls and X=conversion value at any given compound dose. IC50 values were then calculated by plotting dose-response curves and then using the XLfit application in Excel software.

A further experiment addresses T2, CDK4/CyclinD1 (Homo sapiens, UniProt P11802).
T2 construct: purchased ProQinase 0142-0143-1
The experiment in a line: CDK4/CyclinD1 kinase inhibitory activity (Caliper mobility shift). The settings on record: enzyme 20 nM, ATP 672 uM, 28° C. 30 min; read-out: CDK4/Cyclin D1 IC50. Summed up: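 Recombinant CDK4/Cyclin D1 (20 nM final) preincubated 10 min at room temperature with compound in HEPES pH 7.5 buffer with MgCl2, DTT and Triton X-100. Reaction started with 3000 nM FAM-labelled peptide and 672 uM ATP, run 30 min at 28° C, stopped with EDTA. Mobility-shift % conversion gave % inhibition, and IC50 came from dose-response fits.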

The target in another experiment is T3, CDK9/CyclinT1 (Homo sapiens, UniProt P50750).
T3 construct: purchased Millipore 14-685M
T3 sequence (P50750 whole entry): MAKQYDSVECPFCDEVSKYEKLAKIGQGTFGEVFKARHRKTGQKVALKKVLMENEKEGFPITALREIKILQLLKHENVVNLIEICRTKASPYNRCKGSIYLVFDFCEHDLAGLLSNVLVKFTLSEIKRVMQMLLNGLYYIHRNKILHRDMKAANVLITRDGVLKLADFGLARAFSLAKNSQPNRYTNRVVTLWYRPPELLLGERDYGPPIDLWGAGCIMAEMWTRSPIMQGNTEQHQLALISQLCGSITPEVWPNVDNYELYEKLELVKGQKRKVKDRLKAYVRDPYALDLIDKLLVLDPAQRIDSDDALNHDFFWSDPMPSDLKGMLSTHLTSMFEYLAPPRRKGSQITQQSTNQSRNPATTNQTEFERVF
T3 sequence (O60563 whole entry partner): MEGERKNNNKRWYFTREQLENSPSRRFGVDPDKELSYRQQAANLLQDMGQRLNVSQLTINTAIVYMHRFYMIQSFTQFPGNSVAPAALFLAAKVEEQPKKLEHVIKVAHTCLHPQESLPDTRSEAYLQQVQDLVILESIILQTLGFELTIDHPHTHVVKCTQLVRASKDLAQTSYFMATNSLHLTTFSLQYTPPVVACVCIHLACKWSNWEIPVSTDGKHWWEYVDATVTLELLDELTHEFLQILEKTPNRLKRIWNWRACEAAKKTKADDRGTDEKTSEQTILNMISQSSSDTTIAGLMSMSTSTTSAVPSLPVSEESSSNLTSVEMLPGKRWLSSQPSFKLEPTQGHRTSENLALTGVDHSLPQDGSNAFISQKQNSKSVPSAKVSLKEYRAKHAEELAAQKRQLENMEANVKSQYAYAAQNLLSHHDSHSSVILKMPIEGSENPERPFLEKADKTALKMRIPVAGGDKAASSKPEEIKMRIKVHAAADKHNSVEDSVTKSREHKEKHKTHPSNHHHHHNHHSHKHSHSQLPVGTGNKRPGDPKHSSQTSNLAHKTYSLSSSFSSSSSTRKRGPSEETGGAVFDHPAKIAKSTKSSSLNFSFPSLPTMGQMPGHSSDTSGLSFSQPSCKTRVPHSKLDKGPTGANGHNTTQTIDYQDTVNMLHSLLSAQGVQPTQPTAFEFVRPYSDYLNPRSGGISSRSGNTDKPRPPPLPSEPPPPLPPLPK
The experiment in a line: CDK9/CyclinT1 kinase inhibitory activity (Caliper mobility shift). The settings on record: enzyme 12.5 nM, ATP 10M, 28° C. 30 min; read-out: CDK9/Cyclin T1 IC50. Here is the method: CDK9/CyclinT1 kinase inhibitory activity (IC50): 5 μl of various dilutions of test compound in 1× kinase buffer (20 mM HEPES, pH 7.5, 10 mM MgCl2, 2 mM DTT and 0.01% Triton X-100) was mixed with 10 μL of CDK9/CyclinT1 (Millipore, 14-685M #, final concentration 12.5 nM in 1× Kinase buffer) in 384 plates and incubated at room temperature for 10 min. To initiate each reaction, 10 μL of peptide solution containing fluorescently-labeled -peptide CTD3 (5-FAM-[…], GL, SY346885 #, final concentration 3000 nM) and ATP (final concentration […]) in 1× Kinase buffer was added to each of the wells containing test compound and CDK9/CyclinT1 mixture. The reaction is then allowed to proceed at 28° C. for 30 min and terminated by the addition of 25 μL stop buffer (100 mM HEPES pH 7.5, 50 mM EDTA, 0.2% Coating Reagent #3 (Perkin Elmer, 760050 #) and 0.015% Brij-35).
as §1, with “CTD3” for “18”

The structures appear in SMILES notation.

T2 sequence (P11802 whole entry): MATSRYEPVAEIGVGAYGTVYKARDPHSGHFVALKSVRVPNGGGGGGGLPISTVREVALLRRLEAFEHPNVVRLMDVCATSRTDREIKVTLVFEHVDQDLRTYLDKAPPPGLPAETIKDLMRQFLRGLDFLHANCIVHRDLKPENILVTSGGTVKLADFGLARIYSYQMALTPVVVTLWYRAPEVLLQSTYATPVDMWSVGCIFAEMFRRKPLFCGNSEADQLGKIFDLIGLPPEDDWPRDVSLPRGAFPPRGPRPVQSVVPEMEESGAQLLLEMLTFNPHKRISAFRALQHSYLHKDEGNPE
T2 sequence (P24385 whole entry partner): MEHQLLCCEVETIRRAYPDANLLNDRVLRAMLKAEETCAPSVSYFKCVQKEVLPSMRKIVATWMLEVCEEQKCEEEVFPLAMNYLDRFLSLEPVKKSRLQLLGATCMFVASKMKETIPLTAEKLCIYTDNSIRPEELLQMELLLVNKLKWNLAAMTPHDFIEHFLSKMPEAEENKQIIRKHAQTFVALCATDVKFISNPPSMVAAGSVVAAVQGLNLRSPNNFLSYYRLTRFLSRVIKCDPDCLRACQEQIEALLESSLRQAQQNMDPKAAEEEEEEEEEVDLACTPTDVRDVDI

For `Cc1c(C(C)(C)O)cnc2c(F)cc(-c3nc(N[C@@H]4CCOC[C@H]4O)ncc3Cl)cc12` [Example 7, (3S,4R)-4-((5-chloro-4-(8-fluoro-3-(2-hydroxypropan-2-yl)-4-methylquinolin-6-yl)pyrimidin-2-yl)amino)tetrahydro-2H-pyran-3-ol], the IC50 on CDK2/CyclinE1 is 100 to 1000 nM; at CDK4/CyclinD1 it was under 10 nM; at CDK9/CyclinT1 it was 100 to 1000 nM.
As for `O[C@@H]1COCC[C@H]1Nc1ncc(Cl)c(-c2cc(F)c3ncc4c(c3c2)CNCC4)n1` [Example 9, (3S,4R)-4-((5-chloro-4-(7-fluoro-1,2,3,4-tetrahydrobenzo[c][2,6]naphthyridin-9-yl)pyrimidin-2-yl)amino)tetrahydro-2H-pyran-3-ol], the results for the IC50 on CDK2/CyclinE1, on CDK4/CyclinD1 and on CDK9/CyclinT1 were 100 to 1000 nM, under 10 nM and 100 to 1000 nM, respectively.
For the molecule `[2H]c1nc2c(F)cc(-c3nc(N[C@@H]4CCOC[C@H]4O)ncc3C)cc2c2c1CC(C)(C)NC2` [Example 102], the IC50 on CDK2/CyclinE1 was at least 1000 nM; on CDK4/CyclinD1, under 10 nM; at CDK9/CyclinT1 it was 100 to 1000 nM.
The matching figures for `CC(C)(O)c1cnc2c(F)cc(-c3nc(N[C@@H]4CCOC[C@H]4O)ncc3F)cc2c1Cl` [Example 22, (3S,4R)-4-((4-(4-chloro-8-fluoro-3-(2-hydroxypropan-2-yl)quinolin-6-yl)-5-fluoropyrimidin-2-yl)amino)tetrahydro-2H-pyran-3-ol]: 100 to 1000 nM, under 10 nM and 100 to 1000 nM.
On the same counts, the results for `Cc1nc2c(F)cc(-c3nc(N[C@@H]4CCOC[C@H]4O)ncc3Cl)cc2cc1C(C)NC1CC1` (single isomer, unassigned) [Example 73b] are 100 to 1000 nM, under 10 nM and 100 to 1000 nM.
On to `CC(O)c1cnc2c(F)cc(-c3nc(N[C@@H]4CCOC[C@H]4O)ncc3Cl)cc2c1Cl` (single isomer, unassigned) [Example 40a], for which the IC50 on CDK2/CyclinE1 was 100 to 1000 nM; on CDK4/CyclinD1, under 10 nM; on CDK9/CyclinT1, 100 to 1000 nM.
For `CC(C)(O)c1cnc2c(F)cc(-c3nc(Nc4ccc(-c5c[nH]cn5)cn4)ncc3F)cc2c1Cl` [Example 52], the IC50 at CDK2/CyclinE1 is at least 1000 nM; on CDK4/CyclinD1, under 10 nM; on CDK9/CyclinT1, at least 1000 nM.
With `CC1Cc2cnc3c(F)cc(-c4nc(N[C@@H]5CCOC[C@H]5O)ncc4Cl)cc3c2CN1` (single isomer, unassigned) [Example 34b], the IC50 is 100 to 1000 nM on CDK2/CyclinE1, under 10 nM at CDK4/CyclinD1 and 100 to 1000 nM at CDK9/CyclinT1.
As for `Cc1nc2c(F)cc(-c3nc(N[C@@H]4CCOC[C@H]4O)ncc3Cl)cc2c(Cl)c1C(C)O` (single isomer, unassigned) [Example 35a], the IC50 on CDK2/CyclinE1 was 100 to 1000 nM; on CDK4/CyclinD1, under 10 nM; at CDK9/CyclinT1, 100 to 1000 nM.
With `Cc1nc2c(F)cc(-c3nc(N[C@@H]4CCOC[C@H]4O)ncc3Cl)cc2c(C)c1[C@H](C)O` (single isomer, unassigned) [Example 15b], the figures for the IC50 on CDK2/CyclinE1, on CDK4/CyclinD1 and on CDK9/CyclinT1 were 100 to 1000 nM, under 10 nM and 100 to 1000 nM, respectively.
Consider `O[C@@H]1COCC[C@H]1Nc1ncc(Cl)c(-c2cc(F)c3ncc4c(c3c2)C2CCC(C4)N2)n1` (single isomer, unassigned) [Example 20b], for which the IC50 on CDK2/CyclinE1 is 100 to 1000 nM; on CDK4/CyclinD1 it was under 10 nM; on CDK9/CyclinT1, 100 to 1000 nM.
With `[2H]c1nc(N[C@@H]2CCOC[C@H]2O)nc(-c2cc(F)c3nc(C)c(C(C)(C)O)cc3c2)c1F` [Example 83], the IC50 at CDK2/CyclinE1 is 100 to 1000 nM; on CDK4/CyclinD1, under 10 nM; on CDK9/CyclinT1, 100 to 1000 nM.
As for `Cc1nc2c(F)cc(-c3nc(N[C@@H]4CCOC[C@H]4O)ncc3Cl)cc2cc1C1CCCN1` (single isomer, unassigned) [Example 57a], the IC50 at CDK2/CyclinE1 is 100 to 1000 nM; on CDK4/CyclinD1, under 10 nM; at CDK9/CyclinT1 it was 100 to 1000 nM.
For the molecule `CC(C)(O)c1cnc2c(F)cc(-c3nc(N[C@@H]4CCOC[C@H]4O)ncc3Cl)cc2c1Cl` [Example 17, (3S,4R)-4-((5-chloro-4-(4-chloro-8-fluoro-3-(2-hydroxypropan-2-yl)quinolin-6-yl)pyrimidin-2-yl)amino)tetrahydro-2H-pyran-3-ol], the IC50 is 100 to 1000 nM at CDK2/CyclinE1, under 10 nM at CDK4/CyclinD1 and 100 to 1000 nM at CDK9/CyclinT1.
For `CC(C)n1c(C(C)(C)O)nc2c(F)cc(-c3cc(N[C@@H]4CCOC[C@H]4O)ncc3Cl)cc21` [Example 12, (3S,4R)-4-((5-chloro-4-(4-fluoro-2-(2-hydroxypropan-2-yl)-1-isopropyl-1H-benzo[d]imidazol-6-yl)pyridin-2-yl)amino)tetrahydro-2H-pyran-3-ol], the IC50 was at least 1000 nM on CDK2/CyclinE1, 10 to 100 nM on CDK4/CyclinD1 and 100 to 1000 nM at CDK9/CyclinT1.
As for `O[C@@H]1COCC[C@H]1Nc1ncc(Cl)c(-c2cc(F)c3ncc4c(c3c2)CNC2(CC2)C4)n1` [Example 21, (3S,4R)-4-((5-chloro-4-(7-fluoro-1,4-dihydro-2H-spiro[benzo[c][2,6]naphthyridine-3,1′-cyclopropan]-9-yl)pyrimidin-2-yl)amino)tetrahydro-2H-pyran-3-ol], the IC50 on CDK2/CyclinE1 is 100 to 1000 nM; at CDK4/CyclinD1 it was under 10 nM; on CDK9/CyclinT1, 100 to 1000 nM.
For `CNC(C)(C)c1cnc2c(F)cc(-c3nc(N[C@@H]4CCOC[C@H]4O)ncc3Cl)cc2c1` [Example 36], the figures for the IC50 on CDK2/CyclinE1, on CDK4/CyclinD1 and on CDK9/CyclinT1 were 100 to 1000 nM, 10 to 100 nM and 100 to 1000 nM, respectively.
For the molecule `Cc1nc2c(F)cc(-c3nc(N[C@@H]4CCOC[C@H]4O)ncc3Cl)cc2c2c1CC(C)(C)NC2` [Example 98], the IC50 on CDK2/CyclinE1 is 100 to 1000 nM; at CDK4/CyclinD1, under 10 nM; at CDK9/CyclinT1, 100 to 1000 nM.
Turning to `CC1(C)NCc2c(cnc3c(F)cc(-c4nc(N[C@@H]5CCOC[C@H]5O)ncc4F)cc23)C1O` (single isomer, unassigned) [Example 106b], the results for the IC50 at CDK2/CyclinE1, on CDK4/CyclinD1 and on CDK9/CyclinT1 were 100 to 1000 nM, under 10 nM and 100 to 1000 nM, respectively.
Regarding `CC(C)(N)c1cnc2c(F)cc(-c3nc(N[C@@H]4CCOC[C@H]4O)ncc3Cl)cc2c1` [Example 14, (3S,4R)-4-((4-(3-(2-aminopropan-2-yl)-8-fluoroquinolin-6-yl)-5-chloropyrimidin-2-yl)amino)tetrahydro-2H-pyran-3-ol], the IC50 is 10 to 100 nM on CDK2/CyclinE1, under 10 nM at CDK4/CyclinD1 and 100 to 1000 nM at CDK9/CyclinT1.
On the same counts, the results for `O[C@@H]1COCC[C@H]1Nc1ncc(Cl)c(-c2cc(F)c3ncc(C4(O)CC4)cc3c2)n1` [Example 29] are 100 to 1000 nM, 10 to 100 nM and 100 to 1000 nM.
Turning to `Cc1nc2c(F)cc(-c3nc(N[C@@H]4CCOC[C@H]4O)ncc3Cl)cc2cc1C(C)(C)O` [Example 5, (3S,4R)-4-((5-chloro-4-(8-fluoro-3-(2-hydroxypropan-2-yl)-2-methylquinolin-6-yl)pyrimidin-2-yl)amino)tetrahydro-2H-pyran-3-ol], the IC50 was 100 to 1000 nM on CDK2/CyclinE1, under 10 nM at CDK4/CyclinD1 and 100 to 1000 nM at CDK9/CyclinT1.
